Source: patent US10760052B2, “Method of inhibiting tau phosphorylation” (priority 2012, dated 2020)
Where two headings read alike, the source gives them in different places.

Molecular target: T1, mu opiate receptor (MOR) (Rattus norvegicus, UniProt P33535)
T1 construct: from tissue; host or cells: striatum (membrane preparation)
Type: biochemical
Protocol: To assess the mu opiate receptor (MOR) agonist activity of positive compounds from the FLNA screening, compounds were tested in a [^35S]GTPγS binding assay using striatal membranes. […] This assay measures a functional consequence of receptor occupancy at one of the earliest receptor-mediated events. The assay permits for traditional pharmacological parameters of potency, efficacy and antagonist affinity, with the advantage that agonist measures are not subjected to amplification or other modulation that may occur when analyzing parameters further downstream of the receptor.
Thus, striatal tissue was homogenized in 10 volumes of ice cold 25 mM HEPES buffer, pH 7.4, which contained 1 mM EGTA, 100 mM sucrose, 50 μg/ml leupeptin, 0.04 mM PMSF, 2 μg/ml soybean trypsin inhibitor and 0.2% 2-mercaptoethanol. The homogenates were centrifuged at 800×g for 5 minutes and the supernatants were centrifuged at 49,000×g for 20 minutes.
The resultant striatal membrane preparation (200 μg) was admixed and maintained (incubated) at 30° C. for 5 minutes in reaction buffer as above that additionally contained 1 mM MgCl2 and 0.5 nM [^35S]GTPγS (0.1 μCi/assay, PerkinElmer Life and Analytical Sciences) in a total volume of 250 μl and continued for 5 minutes in the absence or presence of 0.1-10 μM of an assayed compound of interest. The reaction was terminated by dilution with 750 μl of ice-cold reaction buffer that contained 20 mM MgCl2 and 1 mM EGTA and immediate centrifugation at 16,000×g for 5 minutes.
Normal rabbit serum (1 μl) was added to 1 ml of lysate and incubated at 25° C. for 30 minutes. Nonspecific immune complexes were removed by incubation with 25 μl of protein A/G-conjugated agarose beads at 25° C. for 30 minutes followed by centrifugation at 5,000×g at 4° C. for 5 minutes. The supernatant was divided and separately incubated at 25° C. for 30 minutes with antibodies raised against Gαo proteins (1:1,000 dilutions).
The immunocomplexes so formed were collected by incubation at 25° C. for 30 minutes with 40 μl of agarose-conjugated protein A/G beads and centrifugation at 5,000×g at 4° C. for 5 minutes. The pellet was washed and suspended in buffer containing 50 mM Tris-HCl, pH 8.0, and 1% NP-40. The radioactivity in the suspension was determined by liquid scintillation spectrometry.

[1] = [35S]GTPγS binding to Gαo in striatal membranes, compound 0.1 μM
[2] = [35S]GTPγS binding to Gαo in striatal membranes, compound 1 μM
[3] = [35S]GTPγS binding to Gαo in striatal membranes, compound 1 μM plus 1 μM β-funaltrexamine (MOR antagonist)

T1 sequence (P33535 whole entry): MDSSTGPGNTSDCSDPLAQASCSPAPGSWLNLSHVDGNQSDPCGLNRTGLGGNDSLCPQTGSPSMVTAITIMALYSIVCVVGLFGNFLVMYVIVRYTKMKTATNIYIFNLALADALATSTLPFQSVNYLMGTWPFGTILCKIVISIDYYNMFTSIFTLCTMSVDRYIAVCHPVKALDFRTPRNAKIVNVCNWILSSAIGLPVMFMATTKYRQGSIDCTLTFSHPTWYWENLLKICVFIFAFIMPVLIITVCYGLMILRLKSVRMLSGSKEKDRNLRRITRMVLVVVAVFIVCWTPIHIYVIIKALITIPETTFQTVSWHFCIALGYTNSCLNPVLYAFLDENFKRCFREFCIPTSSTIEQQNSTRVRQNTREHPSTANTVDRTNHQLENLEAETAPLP

| SMILES | % DAMGO (0.1 μM) | % DAMGO (1 μM) | % DAMGO + BFNA | Concentration of FLNA-Binding Compound as Agonist 0.1 μM [1] | Concentration of FLNA-Binding Compound as Agonist 1 μM [2] | Concentration of FLNA-Binding Compound as Agonist 1 μM + BFNA [3] | Concentration of FLNA-Binding Compound as Agonist 0.1 μM | Concentration of FLNA-Binding Compound as Agonist 1 μM | Concentration of FLNA-Binding Compound as Agonist 1 μM + BFNA |
| --- | --- | --- | --- | --- | --- | --- | --- | --- | --- |
| CN(C)c1cccc(OCC(O)CN2CCc3ccccc3C2)c1 (stereo not drawn) [Compound A0050] | 77.0% | 68.6% | 109.6% | 151.0% | 189.3% | 81.0% | – | – | – |
| CC1CN(CC(O)COc2cccc(C(F)(F)F)c2)CC(C)O1 (stereo not drawn) [Compound A0051] | 148.0% | 140.1% | 286.3% | 290.4% | 386.6% | 211.6% | – | – | – |
| COc1ccc(OCC(O)CN2CCc3ccccc3C2)cc1 (stereo not drawn) [Compound A0053] | 46.5% | 47.5% | 46.2% | 78.5% | 118.2% | 15.1% | – | – | – |
| OC(COc1cccc(C(F)(F)F)c1)CN1CCc2ccccc2C1 (stereo not drawn) [Compound A0054] | 44.4% | 63.9% | 348.9% | 74.9% | 159.2% | 114.1% | – | – | – |
| OC(COc1cccc(F)c1)CN1CCc2ccccc2C1 (stereo not drawn) [Compound A0055] | 53.2% | 78.4% | 102.4% | 89.8% | 195.2% | 33.5% | – | – | – |
| CC1CCC(C(C)C)C(OCC(O)CN2CCC(=O)C(C)C2)C1 (stereo not drawn) [Compound A0056] | 74.1% | 56.2% | 43.6% | – | – | – | 115.6% | 129.6% | 17.4% |
| OC(COc1ccc(Br)c(F)c1)CN1CCc2ccccc2C1 (stereo not drawn) [Compound A0057] | 79.6% | 83.3% | 112.3% | 124.2% | 192.1% | 44.8% | – | – | – |
| OC(COc1ccc(Br)c(F)c1)CN1CCCCC1 (stereo not drawn) [Compound A0058] | 45.3% | 106.0% | 150.1% | 70.7% | 244.3% | 59.9% | – | – | – |
| OC(COc1ccc(Br)c(F)c1)CN1CCSCC1 (stereo not drawn) [Compound A0059] | 63.5% | 56.4% | 214.8% | – | – | – | 99.2% | 129.9% | 85.7% |
| CC1CCC(C(C)C)C(OCC(O)CN2CCC(=O)CC2)C1 (stereo not drawn) [Compound A0060] | 63.9% | 68.6% | 35.8% | 99.7% | 158.2% | 14.3% | – | – | – |
| COc1c2c(cc3c1OCO3)CCN(CC(O)COC1CC(C)CCC1C(C)C)C2 (stereo not drawn) [Compound A0061] | 70.7% | 85.5% | 26.8% | 110.3% | 197.1% | 10.7% | – | – | – |
| CC1CCC(C(C)C)C(OCC(O)CN2CCCc3ccccc32)C1 (stereo not drawn) [Compound A0068] | 36.8% | 35.2% | 182.0% | 73.9% | 110.4% | 98.1% | – | – | – |
| COc1ccc(OCC(O)CN2CCOc3ccccc32)cc1 (stereo not drawn) [Compound A0076] | 46.4% | 78.6% | 119.4% | 79.8% | 172.6% | 41.2% | – | – | – |
| COc1ccc(OCC(O)Cn2ccc3ccccc32)cc1 (stereo not drawn) [Compound A0077] | 170.5% | 132.3% | 470.5% | 300.1% | 334.7% | 103.5% | – | – | – |
| CC1CCC(C(C)C)C(OCC(O)Cn2ccc3ccccc32)C1 (stereo not drawn) [Compound A0078] | 124.9% | 92.3% | 274.2% | – | – | – | 250.5% | 289.9% | 147.8% |
| CC1CCC(C(C)C)C(OCC(O)CN2CC(C)OC(C)C2)C1 (stereo not drawn) [Compound A3333] | 88.9% | 101.0% | 136.7% | 170.7% | 328.3% | 65.9% | – | – | – |
| COc1c2c(cc3c1C(CC(=O)c1ccc(C#N)cc1)[N+](C)(C)CC3)OCO2 (stereo not drawn) [Compound B0001] | 77.4% | 74.9% | 43.1% | 128.2% | 202.3% | 28.0% | – | – | – |
| COc1c2c(cc3c1C(CC(=O)c1ccc(O)c(C)c1)[N+](C)(C)CC3)OCO2 (stereo not drawn) [Compound B0002] | 100.0% | 81.1% | 156.0% | 165.7% | 219.0% | 101.4% | – | – | – |
| COc1c2c(cc3c1C(CC(=O)c1ccc(N4CCOCC4)cc1)[N+](C)(C)CC3)OCO2 (stereo not drawn) [Compound B0004] | 102.8% | 85.8% | 110.8% | 170.3% | 231.7% | 72.0% | – | – | – |
| COc1c2c(cc3c1C(CC(=O)c1ccncc1)[N+](C)(C)CC3)OCO2 (stereo not drawn) [Compound B0005] | 50.5% | 42.6% | 68.6% | 89.2% | 110.4% | 45.1% | – | – | – |
| COc1c2c(cc3c1C(CC(=O)c1cccc(C(F)(F)F)c1)[N+](C)(C)CC3)OCO2 (stereo not drawn) [Compound B0006] | 44.8% | 47.5% | 29.0% | 77.0% | 131.3% | 18.6% | – | – | – |
